Test results from US20090081197A1 (Palatin Technologies, Inc., priority 2007, published 2009).
Non-standard residues stand in square brackets, D forms with d. Residues, ends and D or L forms follow the SMILES beside them. *: point of attachment. dPhe(4-Cl) = N[C@H](Cc1ccc(Cl)cc1)C(=O)O; Ahp = NCCCCCCC(=O)O; Bn = c1ccc(C*)cc1

Experiments:
MC1-R = target: T1, MC1-R (Mus musculus, UniProt Q01727); test: Competitive inhibition assay using [I^125]-NDP-α-MSH, B-16 mouse melanoma cell membranes; assay type: binding; conditions: for inhibition at 1 µM: 1 μM test compound, read-out: Inhibition at 1 μM (NDP-α-MSH) In Normal System, MC1-R
T1 construct: B-16 mouse melanoma cells (containing MC1-R); endogenous in cells
T1 sequence (Q01727 whole entry): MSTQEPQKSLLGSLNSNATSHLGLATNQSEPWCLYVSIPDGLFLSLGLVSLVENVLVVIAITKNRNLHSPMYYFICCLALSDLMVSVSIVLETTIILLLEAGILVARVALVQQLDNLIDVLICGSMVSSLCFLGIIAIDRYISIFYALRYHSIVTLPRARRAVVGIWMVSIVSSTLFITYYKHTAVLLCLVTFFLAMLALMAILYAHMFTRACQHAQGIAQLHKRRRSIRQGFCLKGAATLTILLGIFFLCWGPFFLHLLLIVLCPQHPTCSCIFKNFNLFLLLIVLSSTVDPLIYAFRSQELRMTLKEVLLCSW
Method in brief: (§1)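 Tracer was 0.4 nM for MC3-R and MC5-R, 0.2 nM for MC4-R and 0.1 nM for MC1-R. Bound radioactivity was gamma-counted after filtration; values are triplicate means, with results below 0% reported as 0%.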

[1] = Penile erection induction in male rats; assay type: in vivo; conditions: rat
Method in brief: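 Male Sprague-Dawley rats (200-250 g), groups of 4-8, dosed IV or ICV at various doses and observed individually for penile erections. Only statistically relevant increases over vehicle-control mean PEs count as induction; IV responses below 1.0 PEs/rat treated as equivocal, some retested ICV.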

[2] = ICV food intake and body weight change; assay type: in vivo; conditions: rat, 1 nmol, 24 hours
Method in brief: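 Rats fitted with intracerebroventricular cannulas and fed ad libitum got a single ICV dose of vehicle or compound (1-3 nmol). Food intake and body-weight change over the 24 h after dosing were compared with a 1-week vehicle baseline. Values at 48 h and 72 h were also recorded to follow return to baseline.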

MC3-R = MC3-R (Homo sapiens, UniProt P41968); test: Competitive inhibition assay using [I^125]-NDP-α-MSH, hMC3-R membranes; assay type: binding; set-up: expressed in transfected cells; conditions: 1 μM test compound; read-out: Inhibition at 1 μM (NDP-α-MSH) In Normal System, MC3-R
Sequence of MC3-R (P41968 whole entry): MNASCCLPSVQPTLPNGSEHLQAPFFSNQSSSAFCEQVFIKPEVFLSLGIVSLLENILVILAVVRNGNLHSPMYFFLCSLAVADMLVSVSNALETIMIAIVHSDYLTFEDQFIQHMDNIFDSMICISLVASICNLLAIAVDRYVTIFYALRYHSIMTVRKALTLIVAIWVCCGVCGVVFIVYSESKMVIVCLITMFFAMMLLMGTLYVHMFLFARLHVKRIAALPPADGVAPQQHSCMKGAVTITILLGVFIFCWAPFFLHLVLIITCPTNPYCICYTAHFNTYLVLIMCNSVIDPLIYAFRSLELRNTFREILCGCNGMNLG
Method in brief: as §1

MC4-R [3] = target: T2, MC4-R (Homo sapiens, UniProt P32245); test: cAMP functional activity assay in HEK-293 cells, normal system; assay type: cell-based; set-up: expressed in transfected cells; host or cells: HEK-293; conditions: for intrinsic activity at MC4-R in a normal system: normal receptor density system, NDP-α-MSH = 1.0
T2 sequence (P32245 whole entry): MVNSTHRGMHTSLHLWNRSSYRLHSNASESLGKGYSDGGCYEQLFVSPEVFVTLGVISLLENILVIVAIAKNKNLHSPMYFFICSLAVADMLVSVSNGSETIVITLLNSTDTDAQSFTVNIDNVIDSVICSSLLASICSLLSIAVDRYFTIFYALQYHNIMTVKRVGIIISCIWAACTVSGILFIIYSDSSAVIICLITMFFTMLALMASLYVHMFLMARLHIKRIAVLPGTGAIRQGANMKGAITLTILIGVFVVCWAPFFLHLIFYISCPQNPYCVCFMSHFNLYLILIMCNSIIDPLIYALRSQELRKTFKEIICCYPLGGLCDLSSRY

MC4-R [4] = target: T2, MC4-R; test: Competitive inhibition assay using [I^125]-NDP-α-MSH, hMC4-R membranes; assay type: binding; set-up: host or cells: TREx-293 (HEK-293 stably expressing Tet repressor); conditions: 1 μM test compound; read-out: Inhibition at 1 μM (NDP-α-MSH) In Normal System, MC4-R
Method in brief: as §1

MC4-R [5] = target: T2, MC4-R; test: cAMP agonist stimulation, low receptor density system (0.1 ng/mL doxycycline); conditions: 0.1 ng/mL doxycycline, low receptor density hMC4-R system; NDP-α-MSH maximal cAMP = 1.0
MC4-R [6] = target: T2, MC4-R; test: cAMP agonist stimulation, high receptor density system (10 ng/mL doxycycline); conditions: for Efficacy/Intrinsic Activity: 10 ng/mL doxycycline, high receptor density hMC4-R system, NDP-α-MSH maximal cAMP = 1.0

With `N=C(N)NCCC[C@H](NC(=O)[C@@H](Cc1ccc(Cl)cc1)NC(=O)[C@H](COCc1ccccc1)NC(=O)CCCCCCN)C(=O)N[C@@H](Cc1c[nH]c2ccccc12)C(=O)N[C@@H](CC(=O)O)C(N)=O` [Example 13, NH2—(CH2)6—C(═O)-Ser(Bzl)-D-Phe(4-Cl)-Arg-Trp-Asp-NH2] (H-[Ahp]S(Bn)[dPhe(4-Cl)]RWD-NH2) the inhibition at 1 µM (MC1-R) was 35%, the “Penile Erection IV” value ([1]; IV) was “No” and the penile erection response ([1]; IV) was “no penile erections”. For the same compound, the “decrease in body weight” value [2] was 2.1%, the “decrease in food intake” value [2] was 25.7% and the inhibition at 1 µM (MC3-R) was 73%. The “intrinsic activity at MC4-R in a normal system” value (MC4-R [3]) was 0.5, the inhibition at 1 µM (MC4-R [4]) was 98% and the “Efficacy/Intrinsic Activity” value (MC4-R [5]) was “None”. The EC50 (MC4-R [6]) was 34 nM and the “Efficacy/Intrinsic Activity” value (MC4-R [6]) was 0.72.
For `N=C(N)NCCC[C@H]1CN(CCc2ccc3ccccc3c2)CCN1C(=O)[C@H](N)Cc1ccc(Cl)cc1Cl` [Example 17, N-{3-[(S)-1-[(R)-2-Amino-3-(2,4-dichloro-phenyl)-propionyl]-4-(2-naphthalen-2-yl-ethyl)-piperazin-2-yl]-propyl}-guanidine], the inhibition at 1 µM (MC1-R) was 6%, the Ki (MC1-R; read-out: Ki (nM) (NDP-α-MSH) In Normal System, MC1-R) was 1200 nM and the “Penile Erection ICV” value ([1]; ICV) was “No”. For the same compound, the penile erection response ([1]; ICV, 0.3 to 3 nmole) was “no penile erection response”, the “Penile Erection IV” value ([1]; IV) was “No” and the penile erection response ([1]; IV, 0.3 to 30 μg/kg) was “no penile erection response”. For the same compound, the “decrease in food intake” value [2] was 32%, the inhibition at 1 µM (MC3-R) was 87% and the “intrinsic activity at MC4-R in a normal system” value (MC4-R [3]) was 0.4. For the same compound, the “functional status at MC4-R in cAMP assay” value (MC4-R [3]; normal system, 1 μM concentration where stated) was “partial agonist (intrinsic activity between 0.1 (10%) and 0.7 (70%) is classified as a partial agonist)”, the inhibition at 1 µM (MC4-R [4]) was 99% and the “Efficacy/Intrinsic Activity” value (MC4-R [5]) was “None”. For the same compound, the EC50 (MC4-R [6]) was 847 nM and the “Efficacy/Intrinsic Activity” value (MC4-R [6]) was 0.67.
